Laboratory results: patent US9856256B2, “Pyridino[1,2-A]pyrimidone analogue used as P13K inhibitor” (CHIA TAI TIANQING PHARMACEUTICAL GROUP CO., LTD., priority 2014, dated 2018)

Key:
[1] = biological target: T1, mTOR (Homo sapiens, UniProt P42345); assay: In vitro enzyme activity assay, mTOR kinase (32P-ATP, P81 filter-binding); assay type: biochemical; conditions: 4EBPI substrate, 10 μM ATP; read-out: mTOR enzyme activity_IC50
T1 construct: recombinant human mTOR fragment (amino acid 1360-2549, molecular weight=163.9 kDa); GST-tag (N); host or cells: insect cells
Procedure: mTOR kinase activities of the compounds in all the examples of the present invention were tested via the following method.
Reaction buffer: 20 mM Hepes (pH 7.5), 10 mM MgCl2, 2 mM MnCl2, 1 mM EGTA, 0.02% Brij35, 0.02 mg/mL BSA, 0.1 mM Na3VO4, 2 mM DTT, and 2% DMSO.
Enzyme for reaction: recombinant human mTOR fragment (amino acid 1360-2549, molecular weight=163.9 kDa) with a GST-tag at the N-terminus, which was expressed in insect cells.
Substrate for reaction: recombinant full-length human 4EBPI (molecular weight=13.6 kDa) with a His-tag at the N-terminus, which was expressed in bacteria.
Reaction conditions: […] 4EBPI and 10 μM ATP.
1. adding the reaction substrate and other reaction factors into the freshly prepared reaction buffer;
(§1) 2. adding the kinase into the substrate reaction solution, and mixing gently;
3. transferring the compound dissolved in 100% DMSO into the kinase reaction solution by using Acoustic technique (Echo550; nanoliter rang), and incubating at room temperature for 20 minutes;
4. adding an appropriate concentration of ^32P-ATP into the reaction system;
5. incubating at room temperature for 2 hours;
6. detecting the kinase activity by using P81 filter-binding method.

[2] = system: MCF-7 cells; assay: In vitro cell activity assay (MCF-7, insulin stimulation, ELISA-One); assay type: cell-based; conditions: Homo sapiens, MCF7, compound 2 hours in serum-free media, then 10 μg/ml insulin 30 min
Procedure: Experimental Steps and Method Comprise:
1. MCF-7 cells were seeded at 2,5000 cells per well in a 96 well tissue culture plate in a complete media containing 10%0/FBS.
3. The cells were treated with 10 μg/ml insulin in serum-free media for 30 min.
4. During waiting period, lysis solution was prepared as below:
a) Enhancer Solution needs to be taken out from the refrigerator to be thawed.
b) Concentrated lysis solution was prepared by diluting Enhancer Solution 10-fold in 5× Lysis Buffer.
c) Lysis solution was prepared by diluting concentrated lysis solution 5-fold with ddH2O.
5. Any media were removed from wells and the wells were rinsed with PBS once quickly.
6. 50 μL of freshly prepared lysis solution were added into each well, with shaking at room temperature for 10 min.
7. After confirming that all cells get detached from wells, the lysis solution together with the cell debris was transferred to 1.5 ml tubes.
8. The tubes were vortexed several times to thoroughly mix the lysis solution and cells, and then, and then the mixture was centrifuged at 12,000 g for 10 min at 4° C.;
9. The desired number of ELISA-One microplate strips was determined. Unused strips were removed from frame and returned to storage pouch and seal. Wells for use in the assay were rinsed with 200 μL ddH2O to remove preservatives prior to use.
10. 50 μL of antibody mixture solution was added into each well. (Antibody mixture solution was prepared by mixing capture antibody reagent and detection antibody reagent equally, avoid vortexing)
11. 25 μL of lysate was added into each well of the ELISA-One microplate. The microplate was covered with adhesive seal and incubated for 1 hour at room temperature on a microplate shaker.
12. Each well was washed with 150 μL 1× wash buffer 3 times. After final wash, any remaining wash buffer was removed from wells. If necessary, leave microplate in 1× Wash Buffer for up to 30 min, until substrate mixture solution has been prepared.
13. The substrate mixture solution should be prepared when used, 100 μL of substrate mixture solution was added into each well, and then the microplate was sealed with tin foil and incubated at room temperature for 10 minutes on a microplate shaker.
14. 10 μL of stop solution was added into each well, and then mixed slightly (5-10 seconds) on a microplate shaker.
15. Corresponding ELISA-One filter set was installed to read the fluorescence signal intensity.

[3] = biological target: T2, PI3K (p110α) (Homo sapiens, UniProt P42336); assay: In vitro enzyme activity assay, PI3K (p110α) kinase, Method I (HTRF); assay type: biochemical; design: recombinant full-length human PI3K p110α subunit; His-tag (N); host or cells: insect cells; conditions: 10 μM PI(4,5)P2 and 10 μM ATP), read-out: PI3K (p110α) enzyme activity_IC50
Procedure: (§2) PI3K (p110α) kinase activities of the compounds in all the examples of the present invention were tested via the following two methods, respectively.
Reaction buffer: HEPES 50 mM (pH7.0), NaN3 0.02%, BSA 0.01%. Orthovanadate 0.1 mM, and 1% DMSO.
Detection buffer: HEPES 10 mM (pH7.0), BSA 0.02%, KF 0.16 M, and EDTA 4 mM.
Enzymes for reaction: recombinant full-length human PI3K p110α subunit (molecular weight=128.4 kDa) with a His-tag at the N-terminus and unlabeled p85α subunit (molecular weight=83.6 kDa), which were expressed in insect cells.
Substrate for reaction: […] PIP2 substrate (PI(4,5)P2).
Reaction conditions: 10 μM PI(4,5)P2 and 10 μM ATP.
1. preparing the substrate in the freshly prepared reaction buffer;
as §1
3. transferring the compound dissolved in 100% DMSO into the kinase reaction solution by using Acoustic technique (Echo550; nanoliter rang), and incubating at room temperature for 10 minutes;
4. adding an appropriate concentration of ATP into the reaction system,
5. incubating at 30° C. for half an hour;
6. terminating the reaction by adding a stop solution;
7. adding the detection buffer and incubating overnight; and
8. detecting by using homogeneous time-resolved fluorescence (HTRF) method (excitation wavelength of 320 nm, measuring the ratio of the emission wavelength readings at 615 nm and 665 nm).

[4] = biological target: T2, PI3K (p110α); assay: In vitro enzyme activity assay, PI3K (p110α) kinase, Method II (ADP-Glo assay); assay type: biochemical; design: purchased Millipore 14-602-K; conditions: read-out: PI3K (p110α) enzyme activity_IC50
Procedure: as §2
Dilution of the Compound:
The compound to be tested was diluted with a 3-fold concentration gradient, and 10 concentrations (from 10000 nM to 0.5 nM) were obtained in total.
50 nL of the compound was transferred to a reaction plate (PerkinElmer #6007299) and 3 μL of enzyme/substrate mixture (0.33 nM PI3Kalpha, Millipore #14-602-K/166.5 μM PIP2) was added. After 20 min incubation, 2 uL of ATP solution (100 uM) was added to initiate the reaction. After reacting for 2 hours at room temperature, 5 μL of ADP-Glo reagent was added to terminate the kinase reaction. Then the mixture was incubated at room temperature for 60 min to completely digest the remaining unreacted ATP, 10 uL of kinase detection reagent was added, and after 40 min incubation at room temperature, […] was readed on an Envision. PIP2, ATP, ADP-Glo and the kinase detection reagent were all from ADP-Glo kinase assay kit (Promega #V1792).
IC50 was calculated using standard 4-parameter fit method (Model205, XL-fit, iDBS).

T1 sequence (P42345 1360-2549): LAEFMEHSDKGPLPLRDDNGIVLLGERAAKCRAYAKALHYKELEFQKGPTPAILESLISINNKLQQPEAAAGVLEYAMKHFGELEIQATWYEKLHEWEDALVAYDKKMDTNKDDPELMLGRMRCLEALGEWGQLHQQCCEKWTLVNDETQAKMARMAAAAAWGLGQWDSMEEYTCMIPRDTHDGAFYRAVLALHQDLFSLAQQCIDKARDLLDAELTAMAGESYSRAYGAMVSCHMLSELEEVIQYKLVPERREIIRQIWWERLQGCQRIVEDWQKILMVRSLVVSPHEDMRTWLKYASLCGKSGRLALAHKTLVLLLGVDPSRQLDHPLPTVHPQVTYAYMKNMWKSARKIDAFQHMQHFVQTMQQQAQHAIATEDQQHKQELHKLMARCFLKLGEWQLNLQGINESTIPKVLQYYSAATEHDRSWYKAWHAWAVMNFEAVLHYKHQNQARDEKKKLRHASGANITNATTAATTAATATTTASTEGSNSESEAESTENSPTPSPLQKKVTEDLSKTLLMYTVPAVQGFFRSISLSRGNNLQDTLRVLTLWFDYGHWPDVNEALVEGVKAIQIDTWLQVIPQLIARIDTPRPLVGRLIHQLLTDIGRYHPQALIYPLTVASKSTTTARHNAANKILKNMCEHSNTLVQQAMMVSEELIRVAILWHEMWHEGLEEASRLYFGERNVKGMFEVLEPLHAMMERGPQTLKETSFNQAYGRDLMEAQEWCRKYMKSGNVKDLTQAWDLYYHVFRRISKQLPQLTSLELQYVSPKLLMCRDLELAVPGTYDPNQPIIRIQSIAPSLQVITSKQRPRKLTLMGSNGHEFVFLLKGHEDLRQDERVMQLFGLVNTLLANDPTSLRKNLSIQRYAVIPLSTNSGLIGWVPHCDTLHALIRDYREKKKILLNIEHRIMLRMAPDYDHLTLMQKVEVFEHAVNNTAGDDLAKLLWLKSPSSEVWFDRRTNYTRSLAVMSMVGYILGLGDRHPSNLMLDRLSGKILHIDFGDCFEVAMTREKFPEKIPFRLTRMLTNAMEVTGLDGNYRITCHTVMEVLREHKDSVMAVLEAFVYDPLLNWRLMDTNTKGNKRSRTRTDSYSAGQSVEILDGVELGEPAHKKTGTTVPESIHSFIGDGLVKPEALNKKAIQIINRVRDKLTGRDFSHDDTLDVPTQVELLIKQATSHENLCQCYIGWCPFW
T2 sequence (P42336 whole entry): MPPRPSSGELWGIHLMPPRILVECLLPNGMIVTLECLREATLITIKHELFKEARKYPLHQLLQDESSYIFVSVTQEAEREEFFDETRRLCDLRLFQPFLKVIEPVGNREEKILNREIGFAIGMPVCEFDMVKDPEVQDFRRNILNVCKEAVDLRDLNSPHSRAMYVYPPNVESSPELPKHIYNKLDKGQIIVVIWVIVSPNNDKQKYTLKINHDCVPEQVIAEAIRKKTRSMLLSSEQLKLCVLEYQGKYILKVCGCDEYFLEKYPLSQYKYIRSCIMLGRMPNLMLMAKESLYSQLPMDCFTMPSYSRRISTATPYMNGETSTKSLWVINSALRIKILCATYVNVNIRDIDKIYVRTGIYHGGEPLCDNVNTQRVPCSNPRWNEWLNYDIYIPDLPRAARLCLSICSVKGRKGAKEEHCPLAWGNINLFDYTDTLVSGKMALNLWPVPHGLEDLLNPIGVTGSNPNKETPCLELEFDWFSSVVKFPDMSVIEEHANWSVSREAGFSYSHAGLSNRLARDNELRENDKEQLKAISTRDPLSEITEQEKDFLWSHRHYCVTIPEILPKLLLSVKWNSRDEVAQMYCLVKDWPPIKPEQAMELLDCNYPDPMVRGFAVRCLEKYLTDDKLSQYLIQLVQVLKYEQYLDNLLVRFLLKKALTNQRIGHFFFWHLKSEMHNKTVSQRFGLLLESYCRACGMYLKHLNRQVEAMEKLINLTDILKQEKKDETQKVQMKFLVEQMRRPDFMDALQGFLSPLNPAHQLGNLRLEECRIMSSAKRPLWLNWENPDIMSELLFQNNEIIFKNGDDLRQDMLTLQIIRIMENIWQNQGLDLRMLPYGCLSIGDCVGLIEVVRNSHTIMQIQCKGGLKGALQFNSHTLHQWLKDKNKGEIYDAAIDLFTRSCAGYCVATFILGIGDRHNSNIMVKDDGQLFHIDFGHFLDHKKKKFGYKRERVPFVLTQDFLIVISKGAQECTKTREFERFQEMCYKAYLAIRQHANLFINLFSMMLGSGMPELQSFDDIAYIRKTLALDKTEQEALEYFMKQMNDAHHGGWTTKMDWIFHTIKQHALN
T2 sequence (P27986 whole entry partner): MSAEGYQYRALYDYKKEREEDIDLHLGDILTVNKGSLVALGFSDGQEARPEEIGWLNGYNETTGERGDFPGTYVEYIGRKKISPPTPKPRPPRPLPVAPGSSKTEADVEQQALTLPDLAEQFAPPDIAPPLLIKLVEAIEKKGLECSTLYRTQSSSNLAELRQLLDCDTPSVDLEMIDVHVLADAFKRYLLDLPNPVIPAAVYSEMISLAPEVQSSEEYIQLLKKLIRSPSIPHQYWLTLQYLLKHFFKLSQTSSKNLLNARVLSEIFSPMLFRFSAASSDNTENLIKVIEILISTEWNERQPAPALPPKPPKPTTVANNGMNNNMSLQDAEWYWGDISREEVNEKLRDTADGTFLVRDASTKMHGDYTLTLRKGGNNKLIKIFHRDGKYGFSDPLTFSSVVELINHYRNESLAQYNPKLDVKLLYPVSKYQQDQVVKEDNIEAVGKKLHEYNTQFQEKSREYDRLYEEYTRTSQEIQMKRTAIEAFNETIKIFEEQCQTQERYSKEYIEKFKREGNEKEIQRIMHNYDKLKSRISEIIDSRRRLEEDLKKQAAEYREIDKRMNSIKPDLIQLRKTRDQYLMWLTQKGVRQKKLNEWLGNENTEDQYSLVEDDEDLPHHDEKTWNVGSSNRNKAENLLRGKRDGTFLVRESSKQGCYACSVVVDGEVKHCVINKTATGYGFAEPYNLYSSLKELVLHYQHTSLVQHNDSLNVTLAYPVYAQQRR

Row | IC50 [1] [nM] | IC50 [2] [nM] | IC50 [3] [nM] | IC50 [4] [nM] | SMILES
1 | 50 to 200 | ≤ 50 | ≤ 1 | – | COc1ncc(-c2ccc3ncc(OCCN4CCC(F)(F)CC4)c(=O)n3c2)cc1NS(=O)(=O)c1sc(C)nc1C [Compound 1, N-(5-(3-(2-(4,4-difluoro-1-piperidinyl)ethoxy)-4-oxo-pyrido[1,2-a]pyrimidin-7-yl]-2-methoxypyridin-3-yl]-2,4-dimethylthiazole-5-sulfonamide]
2 | 50 to 200 | ≤ 50 | ≤ 1 | – | COc1ncc(-c2ccc3ncc(OCCN4CCC(F)CC4)c(=O)n3c2)cc1NS(=O)(=O)c1sc(C)nc1C [Compound 2]
3 | > 200 | > 250 | ≤ 1 | – | COc1ncc(-c2ccc3ncc(OCCN4CCNCC4)c(=O)n3c2)cc1NS(=O)(=O)c1sc(C)nc1C [Compound 3]
4 | > 200 | – | ≤ 1 | – | CNCCOc1cnc2ccc(-c3cnc(OC)c(NS(=O)(=O)c4sc(C)nc4C)c3)cn2c1=O [Compound 6]
5 | > 200 | ≤ 50 | ≤ 1 | – | COc1ncc(-c2ccc3ncc(OCCN4CCOCC4)c(=O)n3c2)cc1NS(=O)(=O)c1ccc(C)cc1C [Compound 7, 2,4-Dimethyl-N-(2-methoxy-5-(3-(2-morpholinoethoxy)-4-oxo-4H-pyrido[1,2-a]pyrimidin-4-one-7-yl)pyridin-3-yl)benzenesulfonamide]
6 | > 200 | 50 to 100 | ≤ 1 | – | COc1ncc(-c2ccc3ncc(OCCN4CCOCC4)c(=O)n3c2)cc1NS(=O)(=O)c1ccc(F)cc1C [Compound 8]
7 | > 200 | 100 to 250 | ≤ 1 | – | COc1ncc(-c2ccc3ncc(OCCN4CCOCC4)c(=O)n3c2)cc1NS(=O)(=O)c1ccccc1F [Compound 9]
8 | > 200 | 50 to 100 | ≤ 1 | – | COc1ncc(-c2ccc3ncc(OCCN4CCOCC4)c(=O)n3c2)cc1NS(=O)(=O)c1ccccc1Cl [Compound 10]
9 | > 200 | ≤ 50 | ≤ 1 | – | COc1ncc(-c2ccc3ncc(OCCN4CCOCC4)c(=O)n3c2)cc1NS(=O)(=O)c1ccc(F)cc1Cl [Compound 11]
10 | 50 to 200 | > 250 | ≤ 1 | – | Cc1nc(C)c(S(=O)(=O)Nc2cc(-c3ccc4ncc(OCCN5CCOCC5)c(=O)n4c3)cnc2N)s1 [Compound 12]
11 | > 200 | – | ≤ 1 | – | COc1ncc(-c2ccc3ncc(OCCN4CCOCC4)c(=O)n3c2)cc1NS(=O)(=O)c1ccc(F)cc1F [Compound 13]
12 | > 200 | ≤ 50 | ≤ 1 | – | COc1ncc(-c2ccc3ncc(OCCN4CCOCC4)c(=O)n3c2)cc1NS(=O)(=O)c1ccc(Cl)s1 [Compound 14]
13 | 50 to 200 | ≤ 50 | ≤ 1 | – | COc1ncc(-c2ccc3ncc(OCCN4CCOCC4)c(=O)n3c2)cc1NS(=O)(=O)c1sc(C)nc1C [Compound 15]
14 | 50 to 200 | 100 to 250 | ≤ 1 | – | COc1ncc(-c2ccc3ncc(OCCN4CCOCC4)c(=O)n3c2)cc1NS(=O)(=O)c1sc(N)nc1C [Compound 16]
15 | > 200 | ≤ 50 | – | ≤ 1 | COc1ncc(-c2ccc3ncc(OCCN(C)C)c(=O)n3c2)cc1NS(=O)(=O)c1ccc(F)cc1Cl [Compound 25]
16 | 50 to 200 | 50 to 100 | – | ≤ 1 | COc1ncc(-c2ccc3ncc(OCCN4CCCC4)c(=O)n3c2)cc1NS(=O)(=O)c1ccc(F)cc1Cl [Compound 27]
17 | 50 to 200 | 50 to 100 | – | ≤ 1 | COc1ncc(-c2ccc3ncc(OCC4(N)CC4)c(=O)n3c2)cc1NS(=O)(=O)c1ccc(F)cc1Cl [Compound 32]
18 | > 200 | – | 1 to 50 | – | COc1ncc(-c2ccc3ncc(OC4CCNCC4)c(=O)n3c2)cc1NS(=O)(=O)c1ccc(F)cc1F [Compound 41, 2,4-Difluoro-N-(2-methoxy-5-(4-oxo-3-(piperidin-4-yloxy)-4H-pyrido[1,2-a]pyrimidin-7-yl)pyridin-3-yl)benzenesulfonamide]
19 | > 200 | – | ≤ 1 | – | COc1ncc(-c2ccc3ncc(OC4CCNC4)c(=O)n3c2)cc1NS(=O)(=O)c1ccc(F)cc1F (stereo not drawn) [Compound 44]
20 | – | 100 to 250 | – | ≤ 1 | COc1ncc(-c2ccc3ncc(OCCN4CCC(O)CC4)c(=O)n3c2)cc1NS(=O)(=O)c1ccc(F)cc1Cl [Compound 79]
21 | – | > 250 | – | ≤ 1 | COc1ncc(-c2ccc3ncc(OCCNCCO)c(=O)n3c2)cc1NS(=O)(=O)c1ccc(F)cc1Cl [Compound 81]
22 | – | 100 to 250 | – | ≤ 1 | COc1ncc(-c2ccc3ncc(OCCN4CCC(C)(O)CC4)c(=O)n3c2)cc1NS(=O)(=O)c1ccc(F)cc1Cl [Compound 82]
23 | – | 50 to 100 | – | 1 to 50 | COc1ncc(-c2ccc3ncc(OC4CCN(C)C4)c(=O)n3c2)cc1NS(=O)(=O)c1ccc(F)cc1Cl (stereo not drawn) [Compound 85]
24 | – | 50 to 100 | – | ≤ 1 | COc1ncc(-c2ccc3ncc(OCCN4CCOCC4C)c(=O)n3c2)cc1NS(=O)(=O)c1ccc(F)cc1Cl (stereo not drawn) [Compound 88]
25 | – | ≤ 50 | – | ≤ 1 | COc1ncc(-c2ccc3ncc(OCCN4CCOC(C)C4)c(=O)n3c2)cc1NS(=O)(=O)c1ccc(F)cc1Cl (stereo not drawn) [Compound 89]
26 | – | 50 to 100 | – | ≤ 1 | COc1ncc(-c2ccc3ncc(OCCN4CCN(C(C)=O)CC4)c(=O)n3c2)cc1NS(=O)(=O)c1ccc(F)cc1Cl [Compound 90]
27 | – | ≤ 50 | – | 1 to 50 | COCCN(CCOc1cnc2ccc(-c3cnc(OC)c(NS(=O)(=O)c4ccc(F)cc4Cl)c3)cn2c1=O)CC(F)(F)F [Compound 95]
